Data: PubChem BioAssay AID2060502 (Molecular Pharmacology Branch, DTP, NCI, 2025)
“And” between values parts separate entries of the source, which are not always exact repeats. Equal values may be shown once.

Tested on: 885724-159-R-J1-PDC complex spheroid viability
Test: Anticancer human tumor 885724-159-R-J1-PDC patient-derived pancreatic adenocarcinoma cell line growth inhibition [GQUAD]
Settings: for viability, T/C: stronger effect = lower value
Source text: DNA G-quadruplex Stabilizer Agents in Combinations in Complex Spheroids
A high-throughput screen of multi-cell type tumor spheroids was designed to identify active combinations of DNA G-quadruplex stabilizer agents and targeted small molecules. Complex spheroids include a stromal component modeled by human endothelial cells (HUVEC) and fibroblasts modeled by human mesenchymal stem cells (MSCs). The concentration ranges selected for each drug and investigational agent were based upon clinically achievable concentrations if the clinical Cmax of the agent was known.
Compounds. The drugs and investigational agents: pidnarulex (CX-5461; NSC782164), APTO-253 (NSC789042), BRACO-19 (NSC847499), peposertib (NSC802822), ceralasertib (NSC780249), elimusertib (NSC800525), camonsertib (NSC841442), AZD-1390 (NSC803789), olaparib (NSC753686), talazoparib (NSC767125), ART-558 (NSC835418), sotorasib (NSC818433), MRTX-1133 (NSC836407), SN-38 (NSC673596), topotecan (NSC609699), etoposide (NSC141540), doxorubicin (NSC123127), gemcitabine (NSC613327), 5-fluorouracil (NSC19893), paclitaxel (NSC125973), vemurafenib (NSC761431), panobinostat (NSC761190), R-306465 (JNJ-16241199; NSC773264), adavosertib (NSC754352), TP-3654 (NSC805149), carboplatin (NSC241240), KSQ-4279 (NSC840948), and staurosporine (NSC755774) were obtained from the National Cancer Institute (NCI) Developmental Therapeutics Program Chemical Repository (34). The FDA-approved anticancer drug set is available from the NCI Developmental Therapeutics Program. […] The stock solutions were prepared in dimethyl sulfoxide (DMSO, Sigma-Aldrich, St. Louis, MO, cat. D2650) at 800-fold the tested concentration and stored at -70 degrees C prior to their use. All drugs and investigational agents were tested over a range starting from a high concentration at or near the clinical Cmax and decreasing in half-log increments. If the clinical Cmax for an agent had not been determined, the highest concentration tested was 10 microM.
2.3 Cell Culture. All cells were maintained in an incubator at 37 degrees C and 5% CO2 with 95% humidity. The PDC lines were cultured according to standard operating procedures established by the NCI PDMR. All PDCs were thawed and cultured in Matrigel-coated flasks prepared with a working solution of 1X Ham's F-12 nutrient mix, without supplementation (Invitrogen, cat. 11765054), 100 U/mL penicillin-streptomycin (Invitrogen, cat. 15140122), and 2.5% Matrigel (Corning Inc., cat. 354248) for the first three passages. The 857933-349-R-J2-PDC line was cultured in 6C/Colon 1B media, which includes advanced DMEM/F-12 (Thermo Fisher Scientific, cat. 12634028), 10 mM HEPES (Thermo Fisher Scientific, cat. 15630080), 1X GlutaMAX supplement (Thermo Fisher Scientific, cat. 35050061), 0.1 mg/mL primocin (InvivoGen, cat. ant-pm-2), 10% defined fetal bovine serum, heat inactivated (HyClone Laboratories Inc., cat. SH30070.03HI), 50% L-WRN conditioned media (ATCC, cat. CRL-3276), 1.25 mM N-Acetyl-L-cysteine (Sigma-Aldrich, cat. A9165), 10 mM nicotinamide (Sigma-Aldrich, cat. N0636), 1X B-27 supplement (Thermo Fisher Scientific, cat. 17504044), 1X N-2 supplement (Thermo Fisher Scientific, cat. 17502048), 10 microM Y-27632 dihydrochloride (Tocris Bioscience, cat. 1254), and 50 ng/mL human EGF recombinant protein (Thermo Fisher Scientific, cat. PHG0311). The 485176-168-R4-J1-PDC line was cultured in Panc media, which includes all 6C/Colon 1B media components plus 100 ng/mL human FGF-10 (Thermo Fisher Scientific, cat. 100-26), 500 nM SB-431542 (Selleckchem, cat. S1067), and gastrin (Tocris, cat. 3006).
[…]
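Also: spheroids exposed to agents for seven days before readout.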
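For viability, T/C in this document: percent of vehicle control viability where 100% = DMSO wells.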

`CN(C)c1ccc(Nc2c3ccc(NC(=O)CCN4CCCC4)cc3nc3cc(NC(=O)CCN4CCCC4)ccc23)cc1` was tested, and the viability, T/C (compound 0.0316 µM) was 96.8% [middle of 12 runs], the viability, T/C (compound 0.1 µM) was 97.9% [middle of 12 runs] and the viability, T/C (compound 0.316 µM) was 92.3% [middle of 12 runs]. For the same molecule, the viability, T/C (compound 1 µM) was 79.7% [middle of 12 runs], the viability, T/C (compound 3.16 µM) was 78.5% [middle of 12 runs] and the viability, T/C (compound 10 µM) was 84.1% [middle of 12 runs]. It also gave an IC50 (compound alone, run of 02/26/2024) greater than 10000 nM.

With `CCc1c2c(nc3ccc(O)cc13)-c1cc3c(c(=O)n1C2)COC(=O)[C@]3(O)CC` the viability, T/C (compound 0.000999 µM) was 85.3% and 91.4% and 93.3%, the viability, T/C (compound 0.00316 µM) was 87.5% and 81.8% and 85.2% and the viability, T/C (compound 0.00999 µM) was 63.2% and 62.8% and 77.4%. For the same molecule, the viability, T/C (compound 0.0316 µM) was 66.7% and 67.3% and 62.1%, the viability, T/C (compound 0.0999 µM) was 60.3% and 45.8% and 59% and the viability, T/C (compound 0.316 µM) was 17.2% and 8.7% and 16.4%. For the same molecule, the IC50 (curve of compound) was 110 nM and 64.3 nM and 101 nM.

In the case of `O=C(NO)c1cnc(N2CCN(S(=O)(=O)c3ccc4ccccc4c3)CC2)nc1`, the viability, T/C (compound 0.0316 µM) is reported as 90.6% and 97.6% and 84%, the viability, T/C (compound 0.1 µM) is reported as 98.7% and 96.6% and 80% and the viability, T/C (compound 0.316 µM) is reported as 94.2% and 85.3% and 72%. For the same molecule, the viability, T/C (compound 1 µM) was 43.3% and 36.8% and 41.2%, the viability, T/C (compound 3.16 µM) was 1.62% and 0.69% and 11.8% and the viability, T/C (compound 10 µM) was 0.25% and 0.51% and 0.27%. For the same molecule, the IC50 (curve of compound) was 859 nM and 726 nM and 723 nM.

For `CC1COCCN1c1cc(C2(S(C)(=N)=O)CC2)nc(-c2ccnc3[nH]ccc23)n1` (stereo not given), the viability, T/C (compound 0.0316 µM) was 105% (2×) and 97.6%, the viability, T/C (compound 0.1 µM) was 105% and 96.7% and 98.2% and the viability, T/C (compound 0.316 µM) was 105% and 94.7% and 99.6%. The viability, T/C (compound 1 µM) was 97.2% and 88.8% and 98.5%, the viability, T/C (compound 3.16 µM) was 84.7% and 82.4% and 109% and the viability, T/C (compound 10 µM) was 65.2% and 74.3% and 86.2%. It also gave an IC50 (curve of compound) greater than 10000 nM.

With `CC[C@@]1(O)C(=O)OCc2c1cc1n(c2=O)Cc2cc3c(CN(C)C)c(O)ccc3nc2-1` + Cc1cnc(CNC(=O)c2c(=O)c3ccc(N4CCCN(C)CC4)nc3n3c2sc2ccccc23)cn1 the IC50 (curve of first compound, second compound 0.0316 µM) was greater than 316 nM, the IC50 (curve of first compound, second compound 0.1 µM) was greater than 316 nM and the IC50 (curve of first compound, second compound 0.316 µM) was greater than 316 nM. The IC50 (curve of first compound, second compound 1 µM) was greater than 316 nM, the IC50 (curve of first compound, second compound 3.16 µM) was greater than 316 nM and the IC50 (curve of first compound, second compound 10 µM) was greater than 316 nM. For the same molecule, the viability, T/C (second compound 0.0316 µM, first compound 0.000999 µM) was 117%, the viability, T/C (second compound 0.0316 µM, first compound 0.00316 µM) was 95.5% and the viability, T/C (second compound 0.0316 µM, first compound 0.00999 µM) was 103%. It also gave a viability, T/C (second compound 0.0316 µM, first compound 0.0316 µM) of 106%, a viability, T/C (second compound 0.0316 µM, first compound 0.0999 µM) of 89.1% and a viability, T/C (second compound 0.0316 µM, first compound 0.316 µM) of 65.5%. The viability, T/C (second compound 0.1 µM, first compound 0.000999 µM) was 125%, the viability, T/C (second compound 0.1 µM, first compound 0.00316 µM) was 98.7% and the viability, T/C (second compound 0.1 µM, first compound 0.00999 µM) was 101%. The viability, T/C (second compound 0.1 µM, first compound 0.0316 µM) was 103%, the viability, T/C (second compound 0.1 µM, first compound 0.0999 µM) was 85.5% and the viability, T/C (second compound 0.1 µM, first compound 0.316 µM) was 75.2%. It also gave a viability, T/C (second compound 0.316 µM, first compound 0.000999 µM) of 96.1%, a viability, T/C (second compound 0.316 µM, first compound 0.00316 µM) of 104% and a viability, T/C (second compound 0.316 µM, first compound 0.00999 µM) of 87.6%. For the same molecule, the viability, T/C (second compound 0.316 µM, first compound 0.0316 µM) was 95%, the viability, T/C (second compound 0.316 µM, first compound 0.0999 µM) was 100% and the viability, T/C (second compound 0.316 µM, first compound 0.316 µM) was 70.1%. It also gave a viability, T/C (second compound 1 µM, first compound 0.000999 µM) of 88.6%, a viability, T/C (second compound 1 µM, first compound 0.00316 µM) of 84.1% and a viability, T/C (second compound 1 µM, first compound 0.00999 µM) of 95.2%. The viability, T/C (second compound 1 µM, first compound 0.0316 µM) was 80.3%, the viability, T/C (second compound 1 µM, first compound 0.0999 µM) was 87.8% and the viability, T/C (second compound 1 µM, first compound 0.316 µM) was 70.3%. It also gave a viability, T/C (second compound 3.16 µM, first compound 0.000999 µM) of 74.8%, a viability, T/C (second compound 3.16 µM, first compound 0.00316 µM) of 69.5% and a viability, T/C (second compound 3.16 µM, first compound 0.00999 µM) of 75%. It also gave a viability, T/C (second compound 3.16 µM, first compound 0.0316 µM) of 75.9%, a viability, T/C (second compound 3.16 µM, first compound 0.0999 µM) of 73.9% and a viability, T/C (second compound 3.16 µM, first compound 0.316 µM) of 64.5%. For the same molecule, the viability, T/C (second compound 10 µM, first compound 0.000999 µM) was 70.7%, the viability, T/C (second compound 10 µM, first compound 0.00316 µM) was 81.1% and the viability, T/C (second compound 10 µM, first compound 0.00999 µM) was 72.7%. For the same molecule, the viability, T/C (second compound 10 µM, first compound 0.0316 µM) was 74.2%, the viability, T/C (second compound 10 µM, first compound 0.0999 µM) was 80% and the viability, T/C (second compound 10 µM, first compound 0.316 µM) was 69.1%.
